# From patent US20100261618A1, “Identification of genes implicated in the virulence of streptococcus agalactiae” (priority 2006, published 2010)
# Read-outs that look alike come from different tables or passages of the source.
# How the values were obtained:
# [1] = target: T1, GBS 0582 (Streptococcus agalactiae, UniProt Q8E126); assay: biochemical; parameters: species or system S. agalactiae
# T1 sequence (Q8E126 1-311): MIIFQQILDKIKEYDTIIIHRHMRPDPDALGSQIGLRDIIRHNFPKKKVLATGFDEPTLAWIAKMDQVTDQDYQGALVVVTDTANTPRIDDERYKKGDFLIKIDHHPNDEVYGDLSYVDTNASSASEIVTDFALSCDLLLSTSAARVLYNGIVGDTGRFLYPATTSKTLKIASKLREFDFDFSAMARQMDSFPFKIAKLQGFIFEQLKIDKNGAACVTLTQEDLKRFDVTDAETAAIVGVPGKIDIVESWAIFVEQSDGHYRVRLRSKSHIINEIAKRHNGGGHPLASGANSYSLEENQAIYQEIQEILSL
# [2] = target: GBS 0307 (Streptococcus agalactiae, UniProt Q8E1N5, T550A); assay: biochemical
# Sequence of GBS 0307 (Q8E1N5 whole entry T550A): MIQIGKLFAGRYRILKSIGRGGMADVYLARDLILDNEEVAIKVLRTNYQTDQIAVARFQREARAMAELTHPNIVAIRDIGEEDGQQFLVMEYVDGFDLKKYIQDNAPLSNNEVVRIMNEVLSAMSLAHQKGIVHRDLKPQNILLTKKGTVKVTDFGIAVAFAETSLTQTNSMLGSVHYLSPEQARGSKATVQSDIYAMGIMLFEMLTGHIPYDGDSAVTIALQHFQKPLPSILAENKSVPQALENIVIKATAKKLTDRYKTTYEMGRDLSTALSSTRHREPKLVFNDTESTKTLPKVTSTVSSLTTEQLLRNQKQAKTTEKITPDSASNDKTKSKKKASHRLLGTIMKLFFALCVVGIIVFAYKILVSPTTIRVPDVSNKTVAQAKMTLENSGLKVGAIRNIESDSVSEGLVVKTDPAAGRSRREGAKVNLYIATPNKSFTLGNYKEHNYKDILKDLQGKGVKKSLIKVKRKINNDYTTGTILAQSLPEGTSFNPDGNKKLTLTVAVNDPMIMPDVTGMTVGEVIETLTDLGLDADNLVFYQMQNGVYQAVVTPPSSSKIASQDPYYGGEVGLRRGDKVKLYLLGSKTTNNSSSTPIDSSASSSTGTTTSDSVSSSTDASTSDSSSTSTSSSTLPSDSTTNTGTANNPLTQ
# [3] = tested on: S. agalactiae NEM316 wild type strain; assay: Sensitivity to colistin (MIC) of the wild type strain
# Procedure: Screening for sensitivity to cationic peptide colistin and cell wall defect of the mutant library. The S. agalactiae mutants were grown TH-Kn in 96-wells microplates over-night. Bacteria were then diluted to 1:1000 and each dilution was dispatched into two microplates. In one microplate 50 μl of TH was added, whereas 50 μl of 512 μg/ml colistin (Sigma) or 2 μg/ml novobiocin (Sigma) was added in the other thus obtaining final concentrations of 256 μg/ml and 1 μg/ml, respectively. Microplates were incubated overnight at 37° C. OD600 of microplates was read on a Multiskan Ex apparatus (Thermo).
molecule,measurement,setting,value
"Nc1ncnc2c1ncn2[C@@H]1O[C@H](COP(=O)(O)O)[C@@H](O)[C@H]1O [AMP, Adenosine monophosphate]",IC50,[1],235 ± 45 µM
Nc1ncnc2c1ncn2[C@@H]1O[C@H](COP(=O)(O)OP(=O)(O)O)[C@@H](O)[C@H]1O [ADP],IC50,[1]; read-out: IC50,405 µM
CN[C@@H]1C[C@H]2O[C@@](C)([C@@H]1OC)n1c3ccccc3c3c4c(c5c6ccccc6n2c5c31)C(=O)NC4 [Staurosporine],IC50,[2],0.023 ± 0.008 µM
colistin,CMI,[3],≤ 1024 µg/mL
